From patent US9145391B2, “Bipyridylaminopyridines as Syk inhibitors” (Merck Sharp & Dohme Corp., priority 2011, dated 2015)

target: recombinant human GST-Syk (Homo sapiens (Human), UniProt P43405); test: Homogeneous Time-Resolved Fluorescence (HTRF) assay for the recombinant human Syk enzyme; type: biochemical; settings: recombinant human GST-Syk 5 pM, ATP 25 μM, read-out: rhSyk IC50
Protocol: Syk inhibition may be determined using the following assay protocol: Homogeneous Time-Resolved Fluorescence (HTRF) Assay for the Recombinant Human Syk Enzyme: A recombinant GST-hSyk fusion protein was used to measure potency of compounds to inhibit human Syk activity. […] To initiate the reaction the biotinylated substrate peptide (250 nM final concentration) that contains the phosphorylation site for Syk was added with magnesium (5 mM final concentration) and ATP (25 μM final concentration). […] Final volume of the quenching solution was 10 μL.

Row | SMILES | IC50 [nM]
1 | Cc1cc(Nc2cc(C(F)(F)F)ccn2)nc(-c2ccc(C(C)(O)[C@H]3CC[C@H](C(=O)O)CC3)nc2)c1 (single isomer, unassigned) [Example 1, trans-4-((1R or 1S)-1-Hydroxy-1-(4-methyl-6-(4-(trifluoromethyl)pyridin-2-ylamino)-2,3′-bipyridin-6′-yl)ethyl)cyclohexanecarboxylic acid] | < 0.5
2 | COC(=O)C1CCC(O)(c2ccc(-c3cc(C)cc(Nc4cc(C(F)(F)F)ccn4)n3)cn2)CC1(C)C (single isomer, unassigned) [Example 1-6] | 405
3 | COC(=O)C1CCC(O)(c2ccc(-c3cc(C)cc(Nc4cc(C(F)(F)F)ccn4)n3)cn2)CC1(C)C (single isomer, unassigned) [Example 1-7] | 245
4 | COC(=O)C1CCC(O)(c2ccc(-c3cc(C)cc(Nc4cc(C(F)(F)F)ccn4)n3)cn2)CC1(C)C (single isomer, unassigned) [Example 1-9] | 100
5 | Cc1cc(Nc2cc(C(F)(F)F)ccn2)nc(-c2ccc(NC3CCC(C(=O)O)C(C)C3)nc2)c1 (single isomer, unassigned) [Example 3-2] | < 0.5
6 | Cc1cc(Nc2cc(C(F)(F)F)ccn2)nc(-c2ccc(NC3CCC(C(=O)O)C(C)C3)nc2)c1 (single isomer, unassigned) [Example 3-3] | 1
7 | Cc1cc(Nc2cc(C(F)(F)F)ccn2)nc(-c2ccc(NC3CCC(C(=O)O)C(C)(C)C3)nc2)c1 (single isomer, unassigned) [Example 3-4] | < 0.5
8 | Cc1cc(Nc2cc(C(F)(F)F)ccn2)nc(-c2ccc(NC3CCC(C(=O)O)C(C)(C)C3)nc2)c1 (single isomer, unassigned) [Example 3-5] | 2
9 | Cc1cc(Nc2cc(C(F)(F)F)ccn2)nc(-c2ccc([C@]3(O)CC[C@H](C(N)=O)C(C)(C)C3)nc2)c1 (single isomer, unassigned) [Example 8, (1S,4S or 1R,4R)-4-Hydroxy-2,2-dimethyl-4-(4-methyl-6-{[4-(trifluoromethyl)pyridin-2-yl]amino}-2,3′-bipyridin-6′-yl)cyclohexanecarboxamide] | 23
10 | COC(=O)[C@H]1CC[C@H](C(C)(O)c2ccc(-c3cc(C)cc(Nc4cc(C(F)F)ccn4)n3)cn2)CC1 (single isomer, unassigned) [Example 11, Methyl trans-4-[(1R or 1S)-(6-{[4-(difluoromethyl)pyridin-2-yl]amino}-4-methyl-2,3′-bipyridin-6′-yl)-1-hydroxyethyl]cyclohexanecarboxylate] | 9
11 | Cc1cc(Nc2cc(C(F)F)ccn2)nc(-c2ccc(C(C)(O)[C@H]3CC[C@H](C(=O)O)CC3)nc2)c1 (single isomer, unassigned) [Example 12, trans-4-[(1R or 1S)-(6-{[4-(Difluoromethyl)pyridin-2-yl]amino}-4-methyl-2,3′-bipyridin-6′-yl)-1-hydroxyethyl]cyclohexanecarboxylic acid] | < 0.5
12 | Cc1cc(Nc2cc(C(F)F)ccn2)nc(-c2ccc(C(C)(F)[C@H]3CC[C@H](C(=O)O)CC3)nc2)c1 (single isomer, unassigned) [Example 13, trans-4-(1R or 1S)-(6-(4-(Difluoromethyl)pyridin-2-ylamino)-4-methyl-2,3′-bipyridin-6′-yl)-1-fluoroethyl)cyclohexanecarboxylic acid] | < 0.5
13 | Cc1cc(Nc2cc(C(F)(F)F)ccn2)nc(-c2ccc(C(C)[C@H]3CC[C@H](C(=O)O)CC3)nc2)c1 (single isomer, unassigned) [Example 14, trans-4-[(1R or 1S)-(4-Methyl-6-{[4-(trifluoromethyl)pyridin-2-yl]amino}-2,3′-bipyridin-6′-yl)ethyl]cyclohexanecarboxylic acid] | < 0.5
14 | Cc1cc(Nc2cc(C(F)F)ccn2)nc(-c2ccc(C(C)(O)[C@H]3CC[C@H](C(=O)O)CC3)nc2)c1Br (single isomer, unassigned) [Example 15, trans-4-((1R or 1S)-(3-Bromo-6-(4-(difluoromethyl)pyridin-2-ylamino)-4-methyl-2,3′-bipyridin-6′-yl)-1-hydroxyethyl)cyclohexanecarboxylic acid] | 1
15 | Cc1cc(Nc2cc(C(F)F)ccn2)nc(-c2ccc(C(C)(O)[C@H]3CC[C@H](C(=O)O)CC3)nc2)c1 (single isomer, unassigned) [Example 16, Sodium trans-4-[(1R or 1S)-1-(6-{[4-(difluoromethyl)pyridin-2-yl]amino}-4-methyl-2,3′-bipyridin-6′-yl)-1-hydroxyethyl]cyclohexanecarboxylate] | < 0.5
16 | Cc1cc(Nc2cc(C(F)F)ccn2)nc(-c2ccc(C(C)(O)[C@H]3CC[C@H](C(=O)OCCO)CC3)nc2)c1 (single isomer, unassigned) [Example 18, 2-Hydroxyethyl trans-4-[(1R or 1S)-1-(6-{[4-(difluoromethyl)pyridin-2-yl]amino}-4-methyl-2,3′-bipyridin-6′-yl)-1-hydroxyethyl]cyclohexanecarboxylate] | 3.4

Next, values leading:

Row | IC50 [nM] | SMILES
17 | 1 | Cc1cc(Nc2cc(C(F)F)ccn2)nc(-c2ccc(C(C)(O)C3CCC(C(=O)O)CC3)nc2)c1 (single isomer, unassigned) [Example 12-1, trans-4-[(1R or 1S)-(6-{[4-(difluoromethyl)pyridin-2-yl]amino}-4-methyl-2,3′-bipyridin-6′-yl)-1-hydroxyethyl]cyclohexanecarboxylic acid]
18 | < 0.5 | Cc1cc(Nc2cc(C(F)F)ccn2)nc(-c2ccc(C(C)(O)[C@H]3CC[C@@H](C(=O)O)CC3)nc2)c1 (single isomer, unassigned) [Example 12-2, cis-4-[(1R or 1S)-(6-{[4-(difluoromethyl)pyridin-2-yl]amino}-4-methyl-2,3′-bipyridin-6′-yl)-1-hydroxyethyl]cyclohexanecarboxylic acid]
19 | 1 | Cc1cc(Nc2cc(C(F)F)ccn2)nc(-c2ccc(C(C)(O)[C@H]3CC[C@@H](C(=O)O)CC3)nc2)c1 (single isomer, unassigned) [Example 12-3, cis-4-[(1R or 1S)-(6-{[4-(difluoromethyl)pyridin-2-yl]amino}-4-methyl-2,3′-bipyridin-6′-yl)-1-hydroxyethyl]cyclohexanecarboxylic acid]
20 | 35 | Cc1cc(Nc2cc(C(F)F)ccn2)nc(-c2ccc(C(C)(O)[C@H]3CC[C@H](C(=O)OCc4ccccc4)CC3)nc2)c1 (single isomer, unassigned) [Example 19-1, benzyl trans-4-[(1R or 1S)-1-(6-{[4-(difluoromethyl)pyridin-2-yl]amino}-4-methyl-2,3′-bipyridin-6′-yl)-1-hydroxyethyl] cyclohexanecarboxylate]
21 | 32 | CCCOC(=O)[C@H]1CC[C@H](C(C)(O)c2ccc(-c3cc(C)cc(Nc4cc(C(F)F)ccn4)n3)cn2)CC1 (single isomer, unassigned) [Example 19-2, propyl trans-4-[(1R or 1S)-1-(6-{[4-(difluoromethyl)pyridin-2-yl]amino}-4-methyl-2,3′-bipyridin-6′-yl)-1-hydroxyethyl] cyclohexanecarboxylate]
22 | 50 | Cc1cc(Nc2cc(C(F)F)ccn2)nc(-c2ccc(C(C)(O)[C@H]3CC[C@H](C(=O)OC(C)C)CC3)nc2)c1 (single isomer, unassigned) [Example 19-3, propan-2-yl trans-4-[(1R or 1S)-1-(6-{[4-(difluoromethyl)pyridin-2-yl]amino}-4-methyl-2,3′-bipyridin-6′-yl)-1-hydroxyethyl] cyclohexanecarboxylate]
23 | 65 | CCCCOC(=O)[C@H]1CC[C@H](C(C)(O)c2ccc(-c3cc(C)cc(Nc4cc(C(F)F)ccn4)n3)cn2)CC1 (single isomer, unassigned) [Example 19-4, butyl trans-4-[(1R or 1S)-1-(6-{[4-(difluoromethyl)pyridin-2-yl]amino}-4-methyl-2,3′-bipyridin-6′-yl)-1-hydroxyethyl] cyclohexanecarboxylate]
24 | 7 | CCC(C)OC(=O)[C@H]1CC[C@H](C(C)(O)c2ccc(-c3cc(C)cc(Nc4cc(C(F)F)ccn4)n3)cn2)CC1 (single isomer, unassigned) [Example 19-5, butan-2-yl trans-4-[(1R or 1S)-1-(6-{[4-(difluoromethyl)pyridin-2-yl]amino}-4-methyl-2,3′-bipyridin-6′-yl)-1-hydroxyethyl] cyclohexanecarboxylate]
25 | 74 | Cc1cc(Nc2cc(C(F)F)ccn2)nc(-c2ccc(C(C)(O)[C@H]3CC[C@H](C(=O)OCC(C)C)CC3)nc2)c1 (single isomer, unassigned) [Example 19-6, 2-methylpropyl trans-4-[(1R or 1S)-1-(6-{[4-(difluoromethyl)pyridin-2-yl]amino}-4-methyl-2,3′-bipyridin-6′-yl)-1-hydroxyethyl] cyclohexanecarboxylate]
26 | 100 | CCCCCOC(=O)[C@H]1CC[C@H](C(C)(O)c2ccc(-c3cc(C)cc(Nc4cc(C(F)F)ccn4)n3)cn2)CC1 (single isomer, unassigned) [Example 19-7, pentyl trans-4-[(1R or 1S)-1-(6-{[4-(difluoromethyl)pyridin-2-yl]amino}-4-methyl-2,3′-bipyridin-6′-yl)-1-hydroxyethyl] cyclohexanecarboxylate]
27 | 150 | Cc1cc(Nc2cc(C(F)F)ccn2)nc(-c2ccc(C(C)(O)[C@H]3CC[C@H](C(=O)OCC(C)(C)C)CC3)nc2)c1 (single isomer, unassigned) [Example 19-8, 2,2-dimethylpropyl trans-4-[(1R or 1S)-1-(6-{[4-(difluoromethyl)pyridin-2-yl]amino}-4-methyl-2,3′-bipyridin-6′-yl)-1-hydroxyethyl] cyclohexanecarboxylate]
